Experiment [1] relates to heterotopic xenograft flank U87 tumor implants. As to the kind of experiment: In vivo fluorescence imaging of heterotopic xenograft U87 flank tumors. Conditions: mice with U87 flank tumors; fluorophore-conjugated peptide injected via tail vein; FIG. 1/FIG. 2. On the procedure: (§1) The human U87-MG and LN-229 glioma cell line was purchased from American Type Culture Collection (Manassas, Va., USA) and cultured. NIH athymic nude mice (5-8 weeks and 20-25 g on arrival; NCI-NIH) were maintained at the Athymic Animal Core Facility at Case Western Reserve University according to institutional policies. All animal protocols were approved by the Institutional Animal Care and Use Committee (IACUC). The cells were diluted in a 1:1 mixture of PBS and BD MATRIGEL Matrix (BD Biosciences, Franklin Lakes, N.J., USA), and injected into the right flank of nude athymic mice (NCr-nu/+, NCr-nu/nu, 20-25 g each). The Matrigel-cell mixture was loaded into a 1-ml syringe fitted with a 26-gauge needle and kept on ice. The mixture was injected subcutaneously in the right flank region of the mouse. Flank tumors were grown for 2 to 3 weeks. Each flank was implanted with 1.4-2×10^6 cells. To correlate tumor position with GFP fluorescence, mice were imaged using the Perkin-Elmer MAESTRO FLEX In vivo Imaging System. For in vivo analyses, the mice were anesthetized with inhaled isoflurane/oxygen and imaged. For ex vivo analyses, mice were sacrificed by decapitation. […]
(§2) Nude mice with heterotopic (flank) tumors were typically imaged 3 to 6 weeks following tumor initiation. […] Average radiant intensity units, calculated by the LivingImage software, were obtained for each ROI. […]

Experiment [2] concerns heterotopic xenograft flank U87 tumor implants overexpressing PTPmu. As to the kind of experiment: In vivo fluorescence imaging of heterotopic xenograft U87 flank tumors overexpressing PTPmu. As to conditions: mice with U87 flank tumors overexpressing PTPmu; FIG. 2. On the procedure: as §1, §2

No end group written: not given here.

As to “Peptide 2: SBK linked to a fluorophore with a polyglycine peptide spacer (GEGDDFNWEQVNTLTKPTSD; also: fluorophore linked via polyglycine spacer, not defined)”, the “in vivo average radiant efficiency” value in experiment [1] was “increased average radiant efficiency compared to the first agent, without a spacer, and the control agent”.
For “Peptide 3: SBK linked to a fluorophore with a glycine/serine spacer (GEGDDFNWEQVNTLTKPTSD; also: fluorophore linked via glycine/serine spacer, not defined)”, the “in vivo average radiant efficiency” value in experiment [1] and in experiment [2] was “increased average radiant efficiency compared to the second agent” each time.

Source of the values: patent publication US20230285606A1, “METHODS AND AGENTS FOR THE DETECTION AND TREATMENT OF CANCER” (CASE WESTERN RESERVE UNIVERSITY, priority 2020, published 2023).
